Laboratory results as given in US10065950B2, “Substituted thiazoles as HIV integrase inhibitors” (Japan Tobacco Inc., priority 2010, dated 2018).

Each compound was assayed against HIV-1 pNL4-3 integrase (Human immunodeficiency virus type 1 group M subtype B (isolate NY5) (HIV-1), UniProt P12497) (assay: Determination of enzyme (HIV integrase) inhibitory activity). Conditions: calculated from inhibition rate (fluorescence).
Type: biochemical
Protocol: The following explains evaluation methods of the HIV integrase inhibitory activity of the compound of the present invention.
A full-length gene sequence (Accession No.: M19921) of HIV-1 pNL4-3 integrase was inserted into restriction enzyme Nde I and Xho I sites of plasmid pET21a(+) (manufactured by Novagen) to construct an integrase expression vector pET21a-IN-Wild type.
Escherichia coli recombinant BL21(DE3) transformed with plasmid pET21a-IN-Wild type obtained in (i) was shake cultured at 30° C. in a liquid medium containing ampicillin. When the culture reached the logarithmic growth phase, isopropyl-β-D-thiogalactopyranoside was added to promote expression of integrase gene. The culture was continued for 5 hr to promote accumulation of the integrase protein. The recombinant E. coli was collected in pellets by centrifugal separation and preserved at −80° C.
This Escherichia coli was suspended in Lysis buffer (50 mM Tris-HCl (pH 7.6), 10 mM MgCl2, 5 mM DTT), and disrupted by repeating treatments of pressurization and depressurization, and insoluble fraction was collected by centrifugation at 4° C., 18,000 rpm for 60 min. This was suspended in Lysis buffer containing a protease inhibitor, […] and 10 mM CHAPS were added, and the mixture was stirred at 4° C. for 30 min. Water-soluble fraction was collected by centrifugation at 4° C., 9,000 rpm for 30 min. The obtained fraction was diluted with a column buffer (50 mM Tris-HCl (pH 7.6), 1 mM DTT, 10% Glycerol, 10 mM CHAPS) to 5-fold, and the mixture was applied to heparin column (HiPrep 16/10 Heparin FF column: manufactured by GE Healthcare Bio-Sciences). Using a column buffer containing 1M NaCl, a protein was eluted with 0-1M NaCl concentration gradient, and an eluted fraction containing an integrase protein was collected. The obtained fraction was diluted 5-fold with a column buffer (50 mM Tris-HCl (pH 7.6), 1 mM DTT, 10% Glycerol, 10 mM CHAPS), and the mixture was applied to cation exchange column (Mono-S column: manufactured by GE Healthcare Bio-Sciences). Using a column buffer containing 1M NaCl, a protein was eluted with 0-1M NaCl concentration gradient, and an eluted fraction containing an integrase protein was collected. The obtained fractions of the integrase protein were collected, and preserved at −80° C.
The following DNA synthesized by FASMAC was dissolved in TE buffer (10 mM Tris-hydrochloric acid (pH 8.0), 1 mM EDTA) and mixed with donor DNA, target DNA, and each complementary strand (+ and − strands) to 1 μM. The mixture was heated at 95° C. for 5 min, 80° C. for 10 min, 70° C. for 10 min, 60° C. for 10 min, 50° C. for 10 min and 40° C. for 10 min and kept at 25° C. to give a double stranded DNA, which was used for the test.
Donor DNA (+strand having biotin attached to the 5′ terminal)
Target DNA (+, − strands both having digoxigenin attached to the 3′ terminal)
The donor DNA was diluted with TE buffer to 20 nM, of which 50 μL was added to each well of streptavidin-coated black plate (manufactured by PIAS Corporation) and allowed to adsorb at 37° C. for 20 min. The plate was washed with phosphate buffer (Dulbecco's PBS, Sanko Junyaku Co., Ltd.) containing 0.1% Tween 20 and phosphate buffer. Then, an enzyme reaction mixture (70 μL), a test substance (10 μL) diluted with the enzyme reaction mixture and 0.75 μM integrase protein (10 μL) were added to each well and the mixture was reacted at 37° C. for 60 min. composition of enzyme reaction mixture: 30 mM MOPS (3-morpholinopropanesulfonic acid), 5 mM magnesium chloride, 3 mM DTT (dithiothreitol), 0.1 mg/mL BSA (bovine serum albumin), 5% glycerol, 10% DMSO (dimethyl sulfoxide), 0.01% Tween 20.
Then, 25 nM target DNA (10 μL) was added, and the mixture was reacted at 37° C. for 20 min and washed with phosphate buffer containing 0.1% Tween 20 to stop the reaction. […]

`CCC(=O)NCC1CN(C(C)C)C(=O)c2c(O)c(=O)c(-c3ncc(Cc4ccc(F)cc4F)s3)cn21` (stereo not shown) [Example 68] and `CC(C)C(=O)NCC1CN(C(C)C)C(=O)c2c(O)c(=O)c(-c3ncc(Cc4ccc(F)cc4F)s3)cn21` (stereo not shown) [Example 69] are within 1.5-fold of each other in IC50: 9.8 nM for the first, 13 nM for the second.

`CC1(C)Cn2cc(-c3nnc(Cc4ccc(F)cc4F)s3)c(=O)c(O)c2C(=O)N1C1CCOC1` (stereo not shown) [Example 70] and `CC(C)N1C(=O)c2c(O)c(=O)c(-c3nnc(Cc4ccc(F)cc4F)s3)cn2CC12CCOCC2` [Example 100] are within 1.5-fold of each other in IC50: 8.9 nM for the first, 8.1 nM for the second.

`CC(C)N1CC(CC(=O)NC2CC2)n2cc(-c3ncc(Cc4ccc(F)cc4F)s3)c(=O)c(O)c2C1=O` (stereo not shown) [Example 71] and `CCN(C)C(=O)CC1CN(C(C)C)C(=O)c2c(O)c(=O)c(-c3ncc(Cc4ccc(F)cc4F)s3)cn21` (stereo not shown) [Example 76] are within 1.5-fold of each other in IC50: 11 nM for the first, 8.3 nM for the second.

`CC(C)N1CC(CC(=O)N2CCOCC2)n2cc(-c3ncc(Cc4ccc(F)cc4F)s3)c(=O)c(O)c2C1=O` (stereo not shown) [Example 72] and `CC(=O)N(C)CC1CN(C(C)C)C(=O)c2c(O)c(=O)c(-c3ncc(Cc4ccc(F)cc4F)s3)cn21` (stereo not shown) [Example 80] are within 1.5-fold of each other in IC50: 11 nM for the first, 9.8 nM for the second.

`COCCN(C)C(=O)CC1CN(C(C)C)C(=O)c2c(O)c(=O)c(-c3ncc(Cc4ccc(F)cc4F)s3)cn21` (stereo not shown) [Example 73] and `CCN(CC)C(=O)CC1CN(C(C)C)C(=O)c2c(O)c(=O)c(-c3ncc(Cc4ccc(F)cc4F)s3)cn21` (stereo not shown) [Example 77] are within 1.5-fold of each other in IC50: 7.7 nM for the first, 11 nM for the second.

`CC(C)N1C(=O)c2c(O)c(=O)c(-c3nnc(Cc4ccc(F)cc4F)s3)cn2CC1CC(=O)O` (stereo not shown) [Example 74] and `CNC(=O)CC1Cn2cc(-c3nnc(Cc4ccc(F)cc4F)s3)c(=O)c(O)c2C(=O)N1C(C)C` (stereo not shown) [Example 81] are within 1.5-fold of each other in IC50: 5.7 nM for the first, 7.5 nM for the second.

`CC(C)N1C(=O)c2c(O)c(=O)c(-c3nnc(Cc4ccc(F)cc4F)s3)cn2CC1CC(=O)N(C)C` (stereo not shown) [Example 75] and `CC(C)N1C(=O)c2c(O)c(=O)c(-c3nnc(Cc4ccc(F)cc4F)s3)cn2CC1CCO` (stereo not shown) [Example 90] are within 1.5-fold of each other in IC50: 9.1 nM for the first, 6.7 nM for the second.

`CC(C)N1CC(CNS(C)(=O)=O)n2cc(-c3ncc(Cc4ccc(F)cc4F)s3)c(=O)c(O)c2C1=O` (stereo not shown) [Example 78] and `CC(C)N1CC(CS(C)(=O)=O)n2cc(-c3ncc(Cc4ccc(F)cc4F)s3)c(=O)c(O)c2C1=O` (stereo not shown) [Example 101] are within 1.5-fold of each other in IC50: 8.9 nM for the first, 6.4 nM for the second.

`CC(C)N1CC(C#N)n2cc(-c3ncc(Cc4ccc(F)cc4F)s3)c(=O)c(O)c2C1=O` (stereo not shown) [Example 79] and `CC(C)N1CC(C)(C(=O)N2CCC2)n2cc(-c3ncc(Cc4ccc(F)cc4F)s3)c(=O)c(O)c2C1=O` (stereo not shown) [Example 94] are within 1.5-fold of each other in IC50: 6.4 nM for the first, 8.8 nM for the second.

`CC(C)N1C(=O)c2c(O)c(=O)c(-c3nnc(Cc4ccc(F)cc4F)s3)cn2CC1CC#N` (stereo not shown) [Example 82] and `COC[C@H]1Cn2cc(-c3nnc(Cc4ccc(F)cc4F)s3)c(=O)c(O)c2C(=O)N1C(C)C` [Example 96] are within 1.5-fold of each other in IC50: 4.9 nM for the first, 6.7 nM for the second.

Compared with `COCCOC[C@@H]1Cn2cc(-c3nnc(Cc4ccc(F)cc4)s3)c(=O)c(O)c2C(=O)N1C(C)C` [Example 83], `COCCOC[C@H]1Cn2cc(-c3nnc(Cc4ccc(F)cc4)s3)c(=O)c(O)c2C(=O)N1C(C)C` [Example 120] is 2.1-fold higher in IC50: 7.1 nM for the first, 15 nM for the second.

`COCCOC[C@@H]1Cn2cc(-c3nnc(Cc4ccc(F)cc4)s3)c(=O)c(O)c2C(=O)N1C1CCC1` [Example 84] and `O=C1c2c(O)c(=O)c(-c3nnc(Cc4ccc(F)cc4)s3)cn2CC(CO)N1C1CC1` (stereo not shown) [Example 115] are within 1.5-fold of each other in IC50: 11 nM for the first, 12 nM for the second.

`COC[C@H]1CN(C(C)C)C(=O)c2c(O)c(=O)c(-c3nnc(Cc4ccc(F)cc4F)s3)cn21` [Example 85] and `COC[C@@H]1CN(C(C)C)C(=O)c2c(O)c(=O)c(-c3nnc(Cc4ccc(F)cc4F)s3)cn21` [Example 87] are within 1.5-fold of each other in IC50: 7.5 nM for the first, 7.7 nM for the second.

`COCCOC[C@H]1CN(C2CCC2)C(=O)c2c(O)c(=O)c(-c3nnc(Cc4ccc(F)cc4F)s3)cn21` [Example 86] and `COCCOC[C@H]1CN(CC2CC2)C(=O)c2c(O)c(=O)c(-c3nnc(Cc4ccc(F)cc4F)s3)cn21` [Example 119] are within 1.5-fold of each other in IC50: 9.5 nM for the first, 11 nM for the second.

`COC[C@@H]1CN(C(C)C)C(=O)c2c(O)c(=O)c(-c3nnc(Cc4ccc(F)cc4)s3)cn21` [Example 88] and `COC[C@H]1Cn2cc(-c3nnc(Cc4ccc(F)cc4)s3)c(=O)c(O)c2C(=O)N1C(C)C` [Example 95] are within 1.5-fold of each other in IC50: 8.7 nM for the first, 9.5 nM for the second.

`CCN1C[C@@H](COC)n2cc(-c3nnc(Cc4ccc(F)cc4F)s3)c(=O)c(O)c2C1=O` [Example 89] and `CCN1C[C@H](COC)n2cc(-c3nnc(Cc4ccc(F)cc4F)s3)c(=O)c(O)c2C1=O` [Example 97] are within 1.5-fold of each other in IC50: 8 nM for the first, 6.6 nM for the second.

`COC[C@H]1CN(C2CCC2)C(=O)c2c(O)c(=O)c(-c3nnc(Cc4ccc(F)cc4)s3)cn21` [Example 92] and `COC[C@H]1CN(CC2CC2)C(=O)c2c(O)c(=O)c(-c3nnc(Cc4ccc(F)cc4)s3)cn21` [Example 116] are within 1.5-fold of each other in IC50: 8.7 nM for the first, 9.6 nM for the second.

`COC[C@@H]1Cn2cc(-c3nnc(Cc4ccc(F)cc4F)s3)c(=O)c(O)c2C(=O)N1C1CCC1` [Example 93] and `COC[C@H]1Cn2cc(-c3nnc(Cc4ccc(F)cc4F)s3)c(=O)c(O)c2C(=O)N1C1CCC1` [Example 98] are within 1.5-fold of each other in IC50: 7.8 nM for the first, 7.5 nM for the second.

`COC[C@@H]1Cn2cc(-c3nnc(Cc4ccc(F)cc4F)s3)c(=O)c(O)c2C(=O)N1C(C)C` [Example 99] and `CCN1C(=O)c2c(O)c(=O)c(-c3nnc(Cc4ccc(F)cc4F)s3)cn2C[C@H]1COC` [Example 102] are within 1.5-fold of each other in IC50: 6.1 nM for the first, 7.1 nM for the second.

`COCC1(C)CN(C(C)C)C(=O)c2c(O)c(=O)c(-c3ncc(Cc4ccc(F)cc4)s3)cn21` (stereo not shown) [Example 103] and `COCCOCC1(C)CN(C(C)C)C(=O)c2c(O)c(=O)c(-c3ncc(Cc4ccc(F)cc4)s3)cn21` (stereo not shown) [Example 110] are within 1.5-fold of each other in IC50: 18 nM for the first, 23 nM for the second.

`CNC(=O)C1(C)CN(C(C)C)C(=O)c2c(O)c(=O)c(-c3ncc(Cc4ccc(F)cc4)s3)cn21` (stereo not shown) [Example 104] and `CCNC(=O)C1(C)CN(C(C)C)C(=O)c2c(O)c(=O)c(-c3ncc(Cc4ccc(F)cc4)s3)cn21` (stereo not shown) [Example 105] are within 1.5-fold of each other in IC50: 15 nM for the first, 17 nM for the second.

`CC(C)NC(=O)C1(C)CN(C(C)C)C(=O)c2c(O)c(=O)c(-c3ncc(Cc4ccc(F)cc4)s3)cn21` (stereo not shown) [Example 106] and `CC(C)N1CC(C)(C(=O)O)n2cc(-c3ncc(Cc4ccc(F)cc4)s3)c(=O)c(O)c2C1=O` (stereo not shown) [Example 112] are within 1.5-fold of each other in IC50: 20 nM for the first, 19 nM for the second.

`CC(C)N1CC(C)(C(=O)N(C)C)n2cc(-c3ncc(Cc4ccc(F)cc4)s3)c(=O)c(O)c2C1=O` (stereo not shown) [Example 107] and `CC(C)N1CC(C)(CO)n2cc(-c3ncc(Cc4ccc(F)cc4)s3)c(=O)c(O)c2C1=O` (stereo not shown) [Example 111] are within 1.5-fold of each other in IC50: 19 nM for the first, 20 nM for the second.

`CC(C)N1CC(C)(C(=O)N2CCCCC2)n2cc(-c3ncc(Cc4ccc(F)cc4)s3)c(=O)c(O)c2C1=O` (stereo not shown) [Example 108] and `CC(C)N1CC(C)(C(=O)N2CCCC2)n2cc(-c3ncc(Cc4ccc(F)cc4)s3)c(=O)c(O)c2C1=O` (stereo not shown) [Example 109] are within 1.5-fold of each other in IC50: 18 nM for the first, 21 nM for the second.

Going from `CCN1C(=O)c2c(O)c(=O)c(-c3nnc(Cc4ccc(F)cc4)s3)cn2C[C@@H]1COC` [Example 113] to `CCN1C(=O)c2c(O)c(=O)c(-c3nnc(Cc4ccc(F)cc4F)s3)cn2C[C@@H]1COC` [Example 114], the IC50 falls from 13 nM to 8.1 nM (1.6-fold).

`COC[C@H]1CN(CC2CC2)C(=O)c2c(O)c(=O)c(-c3nnc(Cc4ccc(F)cc4F)s3)cn21` [Example 117] and `COCCOC[C@H]1CN(CC2CC2)C(=O)c2c(O)c(=O)c(-c3nnc(Cc4ccc(F)cc4)s3)cn21` [Example 118] are within 1.5-fold of each other in IC50: 9.4 nM for the first, 13 nM for the second.
